Columns and labels:
Type in all cases: physicochemical
[1] = UVA/UVB absorption of compound films on glass slides, with and without 20 hours ageing under UV (Xenon instrument); conditions: for Tested compound UVA % / Tested compound UVB %: absorption A = (Tslide−Tslide+sample)/Tslide×100; for Plate + tested compound UVA % / Plate + tested compound UVB %: transmission T (%)
Experimental: Compounds IE1, IF1, IA2, IE4, IA1, IE2, ID2 and ID3 were evaluated for their UV absorption properties. Samples were prepared as follows: 20 mg of each of the compounds were dissolved into 1 ml of methanol to yield 20 g/L solutions. The solutions were then applied onto two glass slides each. For each compound, one of the slides was aged for 20 hours under UV (Xenon instrument). Samples were then analyzed using a UVA-UVB spectrophotometer in transmission T (%) mode and compared to the non-aged slides. Absorption (A) was calculated using the following formula: Asample=(Tslide−Tslide+sample)/Tslide×100

[2] = In vitro UV protection performance (SPF in vitro, UVAPF, Critical Wavelength) by the Colipa UVA in vitro Method on PMMA plates; conditions: for Critical Wavelength λc value: PMMA plate, after UV exposure, 90% of the absorbance integral 290 to 400 nm, >= 370 nm = broad-spectrum; for protection against UVA rays (UVAPF in vitro), in words: UVAPF in vitro measurements; for UVAPF: thin film 0.75 mg/cm^2 on PMMA plate, after UV irradiation (pre-irradiation 800 J/m^2-eff); for SPF in vitro: thin film 0.75 mg/cm^2 on roughened PMMA plate, absorbance before UV exposure
Experimental: The following compounds were evaluated by an in vitro study for the Sun Protection Factor (SPF) in vitro, the UVA Protection Factor (UVAPF) and the Critical Wavelength value using the Colipa UVA in vitro Method.
For determining the SPF in vitro value, the protection performance of the compounds against erythemally-effective UV radiation, largely confined to the UVB (290-320 nm) and short-wavelength UVA (320-340) region was calculated from the measured in vitro transmittance. The in vitro UVAPF, the UVA protection (320-400 nm) was calculated from the measured in vitro transmittance after irradiation. The Critical Wavelength Value was defined as the wavelength at which the integral of the spectral absorbance curve reached 90% of the integral over the UV spectrum from 290 to 400 nm. It has been settled that this value must be equal or over 370 nm so as to classify the product as broad-spectrum. The study consisted in a comparative assay of non-treated plates against plates treated with each of the compounds and was based on the evaluation of UV-transmittance through a thin film of sunscreen sample spread on a roughened substrate, before an after exposure to a controlled dose of UV radiation from a UV source. A Kontron 933 spectrophotomer equipped with a UV source, an integrating sphere and a monochromatic light able to deliver a flow of energy between 290 and 400 nm was used. The transmittance values were measured at 1 nm intervals. A 10-4 precision laboratory balance was used to control deposited product weight. The irradiation was provided by Sunset Atlas CPS+ with standard filter. Temperature regulation of the equipment was done in the range of 25-35° C. A pre-irradiation dose of 4 times 200 J/m^2-eff (800 J/m^2-eff) was delivered. The substrate was the material to which the sunscreen product was applied. Polymethylmethacrylate (PMMA) plates were used and were roughened on one side to a three-dimensional surface topography of 5 micrometers. Each compound was weighted and applied evenly to the PMMA plate with a 2-phase spreading to achieve a 0.75 mg/cm^2 weight/surface ratio. Spreading was performed with a light spreading move for approximately 30 seconds followed by spreading with greater pressure for approximately 30 seconds. The resulting sample was left to equilibrate for 15 minutes in the dark at room temperature to ensure a self-leveling if the formula. To account for lack of photostability, a pre-irradiation was necessary. The pre-irradiation dose was 4 minimal erythema dose (MEDs), equivalent to 800 J/m^2-eff. Five measurements of spectral irradiance transmitted for each wavelength through the PMMA plate covered with the sunscreen product were obtained after pre-irradiation of the sunscreen product [P1( ), P2( ), P3( ), P4( ) and P5( )]. For each compound, mean absorbance values were determined from at least three individual PMMA plates. To validate the accuracy of the results, a control product with an established SPF of 18-20, Lot 11T0313 was tested simultaneously with the compounds. SPF in vitro was calculated for each plate using the following equation (Colipa 2011):
[formula] Where: • E( )=Erythema action spectrum (CEI-1987) • I( )=Spectral irradiance of the UV source • A0( )=Mean monochromatic absorbance measurements per plate of the test compound layer before UV exposure, at each wavelength • d=Wavelength step (1 nm) Calculation of the UVAPF for Each Plate after UV Irradiation (Colipa 2011)
[formula] Where: • P( )=PPD action spectrum • I( )=Spectral irradiance of the UV source • A( )=Mean monochromatic absorbance measurements per plate of the test compound layer after UV exposure, at each wavelength • C=Coefficient of adjustment • d=Wavelength step (1 nm) Calculation of the Critical Wavelength (FDA 2011)
[formula] Where: • A( )=Mean monochromatic absorbance measurements per plate of the compound layer after UV exposure, at each wavelength • d=Wavelength step (1 nm) […]

[3] = UV spectrum (λmax) of the isolated compound
Text: In other embodiments, the present invention provides methods and techniques for determining the UV-absorbing capacity of the compounds as defined herein. The UV-absorbing properties of the compounds defined herein can be determined by spectrophotometer according to techniques and methods well known in the art. For example, ultraviolet-visible spectroscopy or ultraviolet-visible spectrophotometry (UV-Vis or UV/Vis) may be used to calculate the wavelength of maximal absorption (λmax) of the compound.

[4] = 20 g/L methanol solution on glass slide, no ageing
[5] = ageing for 20 hours under UV (Xenon instrument)

Row | Tested compound UVA % ([1]; ageing for 20 hours under UV) [%] | Tested compound UVB % ([1]; ageing for 20 hours under UV) [%] | Tested compound UVA % ([1]; no ageing) [%] | Tested compound UVB % ([1]; no ageing) [%] | Plate + tested compound UVA % [1, 4] [%] | Plate + tested compound UVB % [1, 4] [%] | Plate + tested compound UVA % [1, 5] [%] | Plate + tested compound UVB % [1, 5] [%] | Critical Wavelength λc value [2] [nm] | protection against UVA rays (UVAPF in vitro), in words [2] | UVAPF [2] | SPF in vitro [2] | UV: λmax ([3]; MeOH/water with both 0.1% formic acid) [nm] | UV: λmax ([3]; MeOH/water) [nm] | SMILES
1 | 95.0 | 95.6 | 96.1 | 95.3 | 3.51 | 2.12 | 4.43 | 1.97 | – | – | – | – | – | – | CC1(C)CC2=C(SCC(C(=O)O)N2)/C(=N/c2ccccc2)C1 (stereo not shown) [IE2, (E)-6,6-dimethyl-8-(phenylimino)-3,4,5,6,7,8-hexahydro-2H-benzo[b][1,4]thiazine-3-carboxylic acid]
2 | 95.1 | 98.6 | 98.9 | 95.8 | 0.99 | 1.88 | 4.33 | 0.64 | 390 | good protection against UVA rays | 8.7 | 2.4 | – | – | COc1ccc(/N=C2\CC(C)(C)CC3=C2SCC(C(=O)O)N3)cc1 (stereo not shown) [IA1]
3 | 98.9 | 99.0 | 99.5 | 99.2 | 0.44 | 0.34 | 1.00 | 0.46 | – | – | – | – | – | – | COc1ccc(/N=C2/C=C(NCC(=O)O)CC(C)(C)C2)cc1 [ID2]
4 | 98.2 | 97.7 | 98.9 | 98.4 | 1.00 | 0.73 | 1.63 | 1.02 | 391 | good protection against UVA rays | 13.5 | 3.4 | – | – | CC1(C)CC2=C(SCC(C(=O)O)N2)/C(=N/c2ccc(C(=O)NC(C)(C)C)cc2)C1 (stereo not shown) [IE1]
5 | – | – | – | – | – | – | – | – | – | – | – | – | ~318 | – | COc1ccc(/N=C2/C=C(NCC(=O)O)CCC2)cc1 [(E)-2-((3-((4-methoxyphenyl)imino)cyclohex-1-en-1-yl)amino)acetic acid]
6 | 98.6 | 98.6 | 99.5 | 99.3 | 0.47 | 0.33 | 1.28 | 0.62 | – | – | – | – | – | – | COc1ccc(/N=C2/C=C(NCC(=O)O)CCC2)cc1 [ID3]
7 | 98.4 | 98.2 | 99.5 | 99.0 | 0.49 | 0.46 | 1.46 | 0.81 | 390 | good protection against UVA rays | 8.6 | 4.5 | – | – | CC1(C)CC2=C(SCC(C(=O)O)N2)/C(=N/c2ccc(F)cc2)C1 (stereo not shown) [IE4]
8 | 99.6 | 99.1 | 99.7 | 99.3 | 0.24 | 0.31 | 0.37 | 0.39 | 390 | – | 4.1 | 2.1 | – | – | COc1ccc(/N=C2\CC(C)(C)CC3=C2SCC(C(=O)O)N3)cc1OC (stereo not shown) [IF1]
9 | – | – | – | – | – | – | – | – | – | – | – | – | – | ~345 | COc1ccc(/N=C2/C=C(Nc3ccc(OC)cc3)CC(C)(C)C2)cc1 [(E)-N,N′-(5,5-dimethylcyclohex-1-ene-1-yl-3-ylidene)bis(4-methoxyaniline)]

— patent US9487474B2, “Imino compounds as protecting agents against ultraviolet radiations” (Elkimia, Inc., priority 2012, dated 2016)
